# Assays:
# [1] = molecular target: hA1 (Homo sapiens, UniProt P30542); assay: biochemical
# [2] = molecular target: hA2A (Homo sapiens, UniProt P29274); assay: Affinity for human adenosine A2A receptor (Ki); assay type: binding
# [3] = In-vivo metabolite study in female CD-1 mice (radio-HPLC); details: for intact radiotracer in the brain / intact radiotracer in the plasma: radio-HPLC
# Method: In the in-vivo metabolite study in female CD-1 mice after 15 min p.i. in the brain 93% (radio-HPLC, n=3, extraction yield 98%) and in the plasma 79% (radio-HPLC, n=3, extraction yield 83%) of intact radiotracers have been detected.
# [4] = Stability of radiotracer in solutions and porcine plasma; assay type: in vitro ADME; details: 37° C., one hour
# Method: [^18F]FLUDA has shown to be stable in a sodium chloride, PBS, n-octanol solution and in porcine plasma at 37° C. for one hour (PBS=phosphate buffered salt solution). Using the conventional “Shake-flask” method a log D74=2.01±0.07 (n=3) has been established.
# [5] = molecular target: adenosine A2A receptors (Mus musculus, UniProt Q60613); assay: Radiotracer affinity (Kd, Bmax); assay type: binding; details: n=5
# Sequence of adenosine A2A receptors (Q60613 whole entry): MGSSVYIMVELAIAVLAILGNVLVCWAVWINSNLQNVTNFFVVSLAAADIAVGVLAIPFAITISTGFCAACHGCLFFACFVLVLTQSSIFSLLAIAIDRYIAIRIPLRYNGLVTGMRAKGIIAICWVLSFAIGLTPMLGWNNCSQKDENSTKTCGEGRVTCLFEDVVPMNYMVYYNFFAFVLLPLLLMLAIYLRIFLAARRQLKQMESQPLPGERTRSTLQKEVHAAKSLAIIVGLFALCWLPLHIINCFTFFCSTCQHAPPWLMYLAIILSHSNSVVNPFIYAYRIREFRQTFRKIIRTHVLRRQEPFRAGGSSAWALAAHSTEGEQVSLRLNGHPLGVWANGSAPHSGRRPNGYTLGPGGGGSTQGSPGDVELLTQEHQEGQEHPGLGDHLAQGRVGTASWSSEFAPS
# [6] = tested on: striatum (brain slices); assay: In-vitro autoradiography in mouse brain slices; assay type: binding; details: brain slices of mice
# [7] = PET study in healthy CD-1 mice; assay type: in vivo; details: striatum, 15 min p.i., n=3
# [8] = further tests, taking into account the above data, n=3
# [9] = female CD-1 mice, 15 min p.i., n=3
# [10] = repeated study (Example 6A / Comparison example 1A)
# Sequence of hA1 (P30542 whole entry): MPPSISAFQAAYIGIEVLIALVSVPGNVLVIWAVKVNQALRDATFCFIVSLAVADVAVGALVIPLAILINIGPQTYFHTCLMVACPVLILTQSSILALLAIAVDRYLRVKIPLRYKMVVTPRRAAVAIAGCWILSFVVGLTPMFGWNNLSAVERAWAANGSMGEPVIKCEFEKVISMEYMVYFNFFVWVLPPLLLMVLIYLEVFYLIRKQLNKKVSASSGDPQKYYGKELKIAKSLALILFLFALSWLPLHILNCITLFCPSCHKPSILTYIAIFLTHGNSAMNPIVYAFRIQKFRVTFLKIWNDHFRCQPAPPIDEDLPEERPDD
# Sequence of hA2A (P29274 whole entry): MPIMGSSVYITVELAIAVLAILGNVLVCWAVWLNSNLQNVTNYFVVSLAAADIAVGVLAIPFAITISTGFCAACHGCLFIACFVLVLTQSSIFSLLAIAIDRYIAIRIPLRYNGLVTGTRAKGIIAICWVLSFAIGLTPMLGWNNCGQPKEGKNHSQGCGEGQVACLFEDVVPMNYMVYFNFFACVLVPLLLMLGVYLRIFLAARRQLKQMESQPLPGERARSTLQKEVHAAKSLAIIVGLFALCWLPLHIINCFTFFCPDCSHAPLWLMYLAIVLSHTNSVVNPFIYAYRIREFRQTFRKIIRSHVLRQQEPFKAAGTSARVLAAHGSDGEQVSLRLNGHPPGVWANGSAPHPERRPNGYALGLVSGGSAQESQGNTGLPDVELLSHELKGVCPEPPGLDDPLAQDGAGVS
stability in PBS [4],stability in n-octanol solution [4],stability in porcine plasma [4],stability in sodium chloride solution [4],Bmax [5] [fmol/mg],"metabolic stability compared to 18F-labeled compound D ([3]; mouse, in vivo)",cerebral uptake SUV [7],SMILES,Ki ([1]; first determination) [µM],"Ki [1, 8] [µM]",Ki ([2]; first determination) [µM],"Ki [2, 8] [µM]",Ki ([1]; n=4) [µM],"intact radiotracer in the brain [3, 9] [%]","intact radiotracer in the plasma [3, 9] [%]","intact radiotracer in the brain [3, 10] [%]","intact radiotracer in the plasma [3, 10] [%]",change of the radiotracer by A2A-selective ligands [6],enrichment of the radiotracer in the target region (striatum) [6]
–,–,–,–,–,–,–,"[2H]C([2H])(F)C([2H])([2H])Oc1ccc(CCCn2ncc3c2nc(N)n2nc(-c4ccco4)nc32)cc1 (single isomer, unassigned) [FLUDA, 7-(3-(4-(2-(fluoro)ethoxy-1,1,2,2-d4)phenyl)propyl)-2-(furan-2-yl)-7H-pyrazolo[4,3-e][1,2,4]triazolo[1,5-c]pyrimidine-5-amine]",0.767,> 1,0.000609,0.00074 ± 0.00026,–,–,–,–,–,–,–
–,–,–,–,–,–,–,"Nc1nc2c(cnn2CCCc2ccc(OCC[18F])cc2)c2nc(-c3ccco3)nn12 (single isomer, unassigned) [[^18F]D, 7-(3-(4-(2-([^18F]fluoro)ethoxy)phenyl)propyl)-2-(furan-2-yl)-7H-pyrazolo[4,3-e][1,2,4]triazolo[1,5-c]pyrimidine-5-amine, reference compound]",–,–,–,–,0.203,68,70,71,41,–,–
stable,stable,stable,stable,556 ± 143,significantly higher,0.8,"[2H]C([2H])([18F])C([2H])([2H])Oc1ccc(CCCn2ncc3c2nc(N)n2nc(-c4ccco4)nc32)cc1 [[^18F]FLUDA, 7-(3-(4-(2-([^18F]fluoro)ethoxy-1,1,2,2-d4)phenyl)propyl)-2-(furan-2-yl)-7H-pyrazolo[4,3-e][1,2,4]triazolo[1,5-c]pyrimidine-5-amine]",–,–,–,–,–,93,79,100,82,change of the radiotracer by means of A2A-selective ligands,selective enrichment
